“Also recorded” adds a separate entry of the source.
Columns and labels:
Assay type in all cases: cell-based
Caspase-1 [1] = assay: LPS/ATP-induced Caspase-1 activation in mouse bone marrow-derived macrophages (Western blot)
Description: (§1) To produce FIG. 9, cell culture supernatants were collected after (i) no treatment, (ii) LPS treatment, or (iii) LPS/ATP treatment of mouse bone marrow-derived macrophages and run on Western blotting probing with antibodies for Caspase-1 and IL-18.
Further, the present inventors also tested whether NRTIs blocked inflammasome activation by LPS/ATP, which is not known to signal via reverse transcriptase (Mariathasan et al., 2004; Mariathasan et al., 2006; Martinon et al., 2002).
FIGS. 38-41 illustrate that NRTIs block LPS/ATP-induced inflammasome activation. […] Representative images of n=3-4 experiments are provided in each of FIGS. 38-41.

Alu RNA = assay: Northern blot of Alu RNA levels in primary human RPE cells
Description: FIG. 4 provides another example of the results of Northern blotting using an Alu-specific probe.
FIG. 45 is a Northern blot of biotin-UTP-labeled Alu RNA-transfected primary human RPE cells.
As presented in FIG. 3, primary human RPE cells treated with antisense oligonucleotides targeting DICER1 (Dcr as) (lane 3 (third lane from left)) show increased Alu RNA levels in the nuclear compartment compared to control antisense oligonucleotides (Ctr as) (lane 1 (leftmost)), monitored by Northern blotting using an Alu-specific probe.
For example, primary human RPE cells may be transfected with Alu RNA, with or without d4T. […] U6 (bottom row) is shown as loading control for nuclear fraction in FIG. 4.
And FIG. 45 presents a Northern blot of biotin-UTP-labeled Alu RNA-transfected primary human RPE cells.

Caspase-1 [2] = assay: Western blot of Caspase-1 activation in primary mouse RPE cells transfected with Alu RNA; conditions: FIG. 44
IRAK4 [3] = assay: Western blot of IRAK4 phosphorylation in primary mouse RPE cells transfected with Alu RNA; conditions: FIG. 44
IL-1 beta mRNA = assay: IL-1beta priming (mRNA) induced by Alu RNA in primary human RPE cells; conditions: Alu RNA transfection, 24 hours, d4T 100 uM, FIG. 14
Method: FIG. 14 illustrates, in graph format, that Alu RNA transfection increases IL-1 beta mRNA levels in primary human RPE cells at 24 hours, an event termed “priming”, (Y-axis) compared to mock (transfection reagent alone).
FIG. 14 illustrates that Alu RNA transfection increases IL-1 beta mRNA levels in primary human RPE cells at 24 hours, an event termed “priming”, (Y-axis) compared to mock (transfection reagent alone).

IRAK4 [4] = assay: LPS/ATP-induced IRAK4 phosphorylation in primary human RPE cells; conditions: d4T 25/100 uM, FIG. 8
Description: Vinculin was used as the loading control in the gel of FIG. 8. Additionally, as shown, LPS and ATP activate the NLRP3 inflammasome only in combination.
The loading control in FIG. 8 is vinculin. Furthermore, as shown, LPS and ATP activate the NLRP3 inflammasome only in combination, thus treatment with one or the other alone is useful as a control for this experiment.

ATP release = ATP release induced by Alu RNA from primary human RPE cells (ATP-dependent luciferase assay); conditions: cell culture supernatant, FIG. 16, 42
Description: Cell culture supernatant was collected from mock or Alu RNA treated cells, with or without d4T, and ATP was detected using an ATP-dependent luciferase assay.
(FIG. 16) Primary human RPE cells treated with Alu RNA for the times indicated release ATP. […] ATP was detected using an ATP-dependent luciferase assay.

[5] = tested on: GFP-expressing lentivirus; assay: Replication of a GFP-expressing lentivirus in HeLa cells; conditions: HeLa cells; FIG. 22
Description: The present disclosure further provides the results of additional experiments in FIG. 21-FIG. 23.

human P2X7 receptor = target: T1, human P2X7 receptor (Homo sapiens, UniProt Q99572); assay: Patch clamp analysis of P2X7 cation channel function, HEK293 stable cell line expressing human P2X7 receptor
T1 construct: expressed in transfected cells
T1 sequence (Q99572 1-595): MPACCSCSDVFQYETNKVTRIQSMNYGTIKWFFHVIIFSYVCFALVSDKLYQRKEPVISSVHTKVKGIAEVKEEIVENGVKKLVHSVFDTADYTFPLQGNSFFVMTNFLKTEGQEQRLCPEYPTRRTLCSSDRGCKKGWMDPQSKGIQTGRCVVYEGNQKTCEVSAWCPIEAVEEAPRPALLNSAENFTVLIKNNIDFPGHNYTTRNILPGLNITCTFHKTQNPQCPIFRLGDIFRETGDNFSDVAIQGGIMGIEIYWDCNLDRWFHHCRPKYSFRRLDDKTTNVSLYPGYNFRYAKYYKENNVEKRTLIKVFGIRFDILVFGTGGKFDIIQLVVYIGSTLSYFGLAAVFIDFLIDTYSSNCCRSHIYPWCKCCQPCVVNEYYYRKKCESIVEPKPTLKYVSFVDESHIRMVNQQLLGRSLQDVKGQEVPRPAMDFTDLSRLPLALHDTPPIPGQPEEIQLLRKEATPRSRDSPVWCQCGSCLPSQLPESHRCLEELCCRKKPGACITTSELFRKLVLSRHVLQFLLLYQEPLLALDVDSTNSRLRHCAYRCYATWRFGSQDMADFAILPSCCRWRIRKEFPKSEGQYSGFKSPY

IL-18 = assay: LPS/ATP-induced IL-18 maturation in mouse bone marrow-derived macrophages (Western blot); conditions: supernatants, 100 uM, FIG. 9
Description: as §1

NLRP3 mRNA = assay: NLRP3 priming (mRNA) induced by Alu RNA in primary human RPE cells; conditions: Alu RNA transfection, 16 hours, d4T 100 uM, FIG. 13
Method: Indeed, as provided in the bar graph of FIG. 13, Alu RNA transfection increases NLRP3 mRNA levels in primary human RPE cells at 16 hours, an event termed “priming” (Y-axis) compared to mock (transfection reagent alone).

Cc1cn([C@H]2C=C[C@@H](CO)O2)c(=O)[nH]c1=O [d4T, 2′3′ dideoxythymidine]
Caspase-1 activation (active p20 band) induced by LPS/ATP (Caspase-1 [1]; mouse bone marrow-derived macrophages, supernatants, 100 uM, FIG. 9): inhibit
LPS/ATP-induced Caspase-1 maturation (Caspase-1 [1]; primary mouse bone marrow-derived macrophages, FIG. 38): inhibited; also recorded: blocked Caspase-1
Alu RNA levels (normalized to u6 RNA) (Alu RNA; biotin-UTP-labeled Alu RNA-transfected primary human RPE cells, FIG. 45): without reducing Alu RNA levels; also recorded: did not reduce Alu RNA levels
Alu RNA levels in nuclear fraction (Alu RNA; human RPE cells transfected with Alu RNA, 1, 4, or 24 hours after transfection, FIG. 4): does not change Alu RNA levels
Alu RNA levels in nuclear compartment (Alu RNA; primary human RPE cells treated with antisense oligonucleotides targeting DICER1, FIG. 3): does not reduce Alu RNA levels
Caspase 1 cleavage to its active 20 kDa form (Caspase-1 [2]): prevents Caspase 1 cleavage to its active 20 kDa form
IRAK4 phosphorylation (IRAK4 [3]): blocks phosphorylation of IRAK4
IL-1 beta mRNA levels (priming), normalized to 18S RNA (IL-1 beta mRNA): blunted
IRAK4 phosphorylation induced by LPS/ATP (IRAK4 [4]): blocks
ATP release induced by Alu RNA (ATP release): does not block release of ATP; also recorded: did not affect ATP release; also recorded: does not block Alu-induced ATP release
Replication of a GFP-expressing lentivirus [5]: blocks replication of a GFP-expressing lentivirus
P2X7 cation channel function (patch clamp) (human P2X7 receptor): did not significantly modulate P2X7 cation channel function
IL-18 maturation induced by LPS/ATP (IL-18): inhibit
NLRP3 mRNA levels (priming), normalized to 18S RNA (NLRP3 mRNA): blunted

Source: US10864212B2, “Compositions and methods for treating retinal degradation” (University of Kentucky Research Foundation, priority 2013, dated 2020)
